This note sets out measurements from paper PMC8284453 (Antimicrobial Agents and Chemotherapy, 2021).

SMILES strings stand for the structures. Converted amounts (≈) assume the structure as drawn. Read-outs that look alike come from different tables or passages of the source. A value given as a limit tells only on which side of the number the result lay.

Assay [1] relates to Enterobacterales expressing class D oxacillinases (OXA-48/48-like). The assay is described as follows: organism not typed. The class given is cell-based, E. coli, K. pneumoniae.
The subject of assay [2] is Enterobacterales expressing class C cephalosporinases.
Assay [3] deals with isogenic strains of E. coli expressing Ambler class A, B, C, and D enzymes. The assay is described as follows: microbe, parasite or virus in culture. The assay is classed as cell-based, Escherichia coli. The settings on record: Escherichia coli, read-out: Vector control MIC.
The test system of assay [4] is Enterobacterales expressing class A carbapenemases (KPC). The assay is described as follows: organism not typed. The assay is classed as cell-based, K. pneumoniae, E. coli, E. cloacae, Klebsiella oxytoca.
Assay [5] deals with strains of Enterobacterales expressing serine β-lactamases. The assay is described as follows: organism not typed. The class given is cell-based.
The test system of assay [6] is K. pneumoniae 752286 (OXA-48). The assay is described as follows: Broth microdilution MIC. The assay is classed as cell-based. Conditions: Klebsiella pneumoniae. A general note: In broth dilution the organism is exposed to a series of concentrations in liquid medium.
Assay [7] relates to K. pneumoniae ATCC BAA-1705 (KPC-2). The assay is described as follows: Broth microdilution MIC. The assay is classed as cell-based. The settings on record: Klebsiella pneumoniae, ATCCBAA1705.
Assay [8] deals with E. cloacae ECL01 (TEM-72, ACT-1, P99AmpC). The assay is described as follows: Broth microdilution MIC. The assay is classed as cell-based. Conditions: Enterobacter cloacae.
For assay [9], the system named is K. pneumoniae 752286 (OXA-48). The assay is described as follows: 24-h time-kill assay. The assay is classed as cell-based. The settings on record: Klebsiella pneumoniae; lowest concentration with ≥3-log10 CFU/ml reduction at 24 h; read-out: MBC. How it is done:
(§1) In vitro antibacterial time-kill assay. […] Time-kill assays were performed in 14 ml glass tubes or deep-well storage plates with a bacterial inoculum in CAMHB of 5 × 10^5 CFU/ml. The tubes/plates were incubated at 37°C with shaking at 200 rpm, and aliquots were drawn at six time points (0, 2, 4, 6, 8, and 24 h) to conduct 0.5 log10 dilutions in CAMHB in 96-well plates that were incubated overnight at 37°C and used to ascertain viable bacterial counts. The lowest quantifiable amount by this method is 2 log10 CFU/ml.

Assay [10] concerns E. cloacae ECL01 (TEM-72, ACT-1, P99AmpC). The assay is described as follows: 24-h time-kill assay. The assay is classed as cell-based. How it is done: as §1
In assay [11] the test system is K. pneumoniae ATCC BAA-1705 (KPC-2). The assay is described as follows: 24-h time-kill assay. The assay is classed as cell-based. The settings on record: Klebsiella pneumoniae, ATCCBAA1705; lowest concentration with ≥3-log10 CFU/ml reduction at 24 h; read-out: MBC. How it is done: as §1
Assay [12] concerns E. coli ESBL4 (CTX-M-15). The assay is described as follows: 24-h time-kill assay. The class given is cell-based. Conditions: Escherichia coli; lowest concentration with ≥3-log10 CFU/ml reduction at 24 h; read-out: MBC. How it is done: as §1
Assay [13] has as its system E. coli ESBL4 (CTX-M-15). The assay is described as follows: Broth microdilution MIC. The class given is cell-based. The settings on record: Escherichia coli.
The next assay addresses T1, CMY-2 (Klebsiella pneumoniae, UniProt Q48434).
T1 construct: made in house; host or cells: E. coli BL21(DE3), pET9a
The assay is described as follows: IC50 determination against purified β-lactamase. The settings on record: substrate nitrocefin; mean from duplicate measurements; read-out: IC50. The class given is biochemical.

The next assay has as its target KPC-2 (Klebsiella pneumoniae, UniProt Q9F663). The assay is described as follows: IC50 determination against purified β-lactamase. Set-up: made in house; host or cells: E. coli BL21(DE3), plasmid pET-KPC-2 (pET9a). The assay is classed as biochemical. Conditions: substrate imipenem; mean from duplicate measurements. How it is done: An equal volume of enzyme was added (assay concentrations, 0.6 nM P99AmpC, 21 nM CTX-M-15, 3 nM KPC-2, 100 nM SHV-5), and the mixtures were preincubated for 15 min at 37°C. For AmpC, nitrocefin was then added to obtain a final concentration of 100 μM, and the absorbance at a wavelength (λ) of 486 nm (representing hydrolysis of the nitrocefin β-lactam ring) was monitored immediately using a BioTek Powerwave XS2 microplate reader. In similar fashion, using UV-transparent 96-well microtiter plates, hydrolysis of imipenem (100 μM) by KPC-2 was monitored at λ 300 nm, while cefotaxime (100 μM) hydrolysis by CTX-M-15 and SHV-5 was monitored at λ 300 nm. Assays were performed in duplicate, and the percentage inhibition relative to reaction mixtures containing no inhibitor were determined for each concentration of inhibitor.

The target of a further assay is T2, OXA-48 (Klebsiella pneumoniae, UniProt Q6XEC0).
T2 construct: made in house; host or cells: E. coli BL21(DE3), plasmid pET-OXA-48 (pET9a)
The assay is described as follows: biochemical.

The mark [14] stands for this setting: 25 isolates, BLI fixed at 4 μg/ml, AMC 2:1.

T1 sequence (Q48434 21-381): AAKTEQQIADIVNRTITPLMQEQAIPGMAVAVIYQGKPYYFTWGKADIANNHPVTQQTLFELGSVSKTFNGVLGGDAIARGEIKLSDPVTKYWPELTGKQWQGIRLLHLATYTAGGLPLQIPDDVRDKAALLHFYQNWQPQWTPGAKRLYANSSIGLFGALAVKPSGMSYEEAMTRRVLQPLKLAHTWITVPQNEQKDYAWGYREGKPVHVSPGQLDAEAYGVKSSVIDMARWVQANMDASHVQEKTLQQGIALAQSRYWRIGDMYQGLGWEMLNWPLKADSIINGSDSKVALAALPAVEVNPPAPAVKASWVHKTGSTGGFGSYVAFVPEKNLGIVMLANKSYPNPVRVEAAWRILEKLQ
T2 sequence (Q6XEC0 23-265 limits assumed): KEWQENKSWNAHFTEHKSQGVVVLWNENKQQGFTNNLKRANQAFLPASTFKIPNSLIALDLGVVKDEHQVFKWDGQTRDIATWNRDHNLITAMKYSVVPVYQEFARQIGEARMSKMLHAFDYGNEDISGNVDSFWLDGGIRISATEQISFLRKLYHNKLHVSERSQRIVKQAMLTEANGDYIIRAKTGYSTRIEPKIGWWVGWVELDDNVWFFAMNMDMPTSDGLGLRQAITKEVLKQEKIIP
KPC-2, sequence (Q9F663 25-293 limits assumed): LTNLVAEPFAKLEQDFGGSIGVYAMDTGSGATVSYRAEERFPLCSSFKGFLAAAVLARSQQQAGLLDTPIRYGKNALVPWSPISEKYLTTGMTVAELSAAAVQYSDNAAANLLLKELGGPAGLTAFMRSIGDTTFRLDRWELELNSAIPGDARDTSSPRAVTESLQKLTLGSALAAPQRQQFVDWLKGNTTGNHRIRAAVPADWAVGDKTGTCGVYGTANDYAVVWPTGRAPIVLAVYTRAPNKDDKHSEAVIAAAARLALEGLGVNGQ

For orientation: MIC50 means an inhibitory concentration at the 50% level, which refers to growth in some studies and to a panel of isolates in others. Read a low MIC50 as greater potency. As a reminder, the MIC90 is the lowest concentration that inhibits either 90% of growth or 90% of the strains tested, depending on the study. For `CC1(C)S[C@@H]2[C@H](NC(=O)[C@H](N)c3ccc(O)cc3)C(=O)N2[C@H]1C(=O)O` [AMX, amoxicillin], the MIC50 in assay [1] (setting [14]) and in [2] (setting [14]) was ≥ 256 µg/mL each time. The MIC90 in assay [1] (setting [14]) and in [2] (setting [14]) was ≥ 256 µg/mL throughout. Moreover, the MIC range in assay [1] (setting [14]) was ≥ 256 µg/mL. In addition, the MIC in assay [1] (E. coli 664507 (OXA-48)), in assay [1] (E. coli 664516 (OXA-48)), in assay [1] (E. coli 664520 (OXA-48)), in assay [1] (E. coli 664522 (OXA-48)), in assay [1] (E. coli 664523 (OXA-48)) and in [1] (E. coli 664524 (OXA-48)) was ≥ 256 µg/mL in each case. Moreover, the MIC in [1] (E. coli 664525 (OXA-48)), in assay [1] (E. coli 664526 (OXA-48)), in assay [1] (E. coli 664528 (OXA-48)), in assay [1] (E. coli 787112 (OXA-48)), in [1] (E. coli SI-422 (OXA-48)) and in assay [1] (E. coli VER (OXA-48)) was ≥ 256 µg/mL in each case. For the same molecule, the MIC in assay [1] (K. pneumoniae 6299 (OXA-163)) was ≥ 256 µg/mL; in [1] (K. pneumoniae 515746 (OXA-48), first line) it was ≥ 256 µg/mL; in assay [1] (K. pneumoniae 515746 (OXA-48), second line) it was ≥ 256 µg/mL; in assay [1] (K. pneumoniae 664438 (OXA-48)), ≥ 256 µg/mL; in assay [1] (K. pneumoniae 664439 (OXA-48)) it was ≥ 256 µg/mL; in assay [1] (K. pneumoniae 664509 (OXA-48)) it was ≥ 256 µg/mL. Also, the MIC in [1] (K. pneumoniae 664518 (OXA-48)), in [1] (K. pneumoniae 722870 (OXA-48)), in assay [1] (K. pneumoniae BAH (OXA-204)), in assay [1] (K. pneumoniae DEL (OXA-232)), in [1] (K. pneumoniae DOV (OXA-48)) and in [1] (K. pneumoniae KIRK (OXA-162)) was ≥ 256 µg/mL throughout. The MIC in assay [1] (K. pneumoniae SI-C17 (OXA-48)) was ≥ 256 µg/mL; in assay [2] (C. freundii 134390 (AmpC, TEM-1)) it was ≥ 256 µg/mL; in assay [2] (E. aerogenes 110099 (AmpC, SHV-12)), ≥ 256 µg/mL; in [2] (E. aerogenes 111707 (AmpC, TEM-1)) it was ≥ 256 µg/mL; in assay [2] (E. aerogenes 111902 (AmpC, TEM-1)), ≥ 256 µg/mL; in [2] (E. coli 128 (AmpC, SHV-12, TEM-1, Toho-2)), 128 µg/mL (≈ 350 µM). Also, the MIC was 32 µg/mL (≈ 87.6 µM) in assay [2] (E. coli 3102 (AmpC, CTX-M-15, TEM-1)); ≥ 256 µg/mL in [2] (E. coli CH1 (AmpC, CTX-M-15, SHV-1, SHV-5, TEM-1)); 128 µg/mL (≈ 350 µM) in assay [2] (E. coli EC469 (AmpC, SHV-12, TEM-1)); 128 µg/mL (≈ 350 µM) in assay [2] (E. coli J53 (AmpC, SHV-5, TEM-1)); ≥ 256 µg/mL in [2] (E. coli SI-P026TC (CMY-2, TEM-1)); ≥ 256 µg/mL in [2] (E. coli SI-PO26 (AmpC, CMY-2, TEM-1)). Also, the MIC in assay [2] (K. pneumoniae 129032 (MOX-2, SHV-12, TEM-1)) is ≥ 256 µg/mL; in [2] (K. pneumoniae 178279 (AmpC, SHV-12, TEM-1)) it was ≥ 256 µg/mL; in assay [2] (K. pneumoniae 212027 (AmpC, FOX-5, TEM-1)) it was ≥ 256 µg/mL; in [2] (K. pneumoniae 217917 (CMY-2, TEM-1)), ≥ 256 µg/mL; in [2] (K. pneumoniae 301313 (AmpC, SHV-12, TEM-1)), ≥ 256 µg/mL; in [2] (K. pneumoniae 398845 (CMY-2, SHV-12, TEM-1)), ≥ 256 µg/mL. Besides, the MIC in assay [2] (K. pneumoniae SI-F100 (CMY-2, SHV-5, TEM-1)) was ≥ 256 µg/mL; in assay [2] (P. mirabilis SI-F014 (AmpC, TEM-72)), ≥ 256 µg/mL; in assay [2] (S. marcescens 132253 (AmpC, CTX-M-3, OXA-1, SHV-12, TEM-1)) it was ≥ 256 µg/mL; in assay [2] (S. marcescens 134434 (AmpC, SHV-12, TEM-1)), ≥ 256 µg/mL; in assay [2] (S. marcescens 142397 (AmpC, SHV-7, TEM-1)), ≥ 256 µg/mL; in [2] (S. marcescens 156212 (AmpC, SHV-12, TEM-1)), ≥ 256 µg/mL. The MIC in assay [2] (S. marcescens 192478 (AmpC, SHV-12, TEM-1)) is ≥ 256 µg/mL; in [2] (S. marcescens 218068 (AmpC, SHV-7, TEM-1)) it was ≥ 256 µg/mL; in [3], 8 µg/mL (≈ 21.9 µM); in assay [4] (E. cloacae 847429 (KPC)), ≥ 64 µg/mL; in [4] (E. cloacae OIMGH49 (p99 AmpC, ACT-2, KPC-2, TEM-1)) it was ≥ 64 µg/mL; in assay [4] (E. coli 786978 (KPC)), ≥ 64 µg/mL. Also, the MIC in assay [4] (K. pneumoniae 845661 (KPC)), in assay [4] (K. pneumoniae 845662 (KPC)), in assay [4] (K. pneumoniae 845665 (KPC)), in assay [4] (K. pneumoniae 845667 (KPC)), in assay [4] (K. pneumoniae 845670 (KPC)) and in assay [4] (K. pneumoniae 845904 (KPC)) was ≥ 64 µg/mL in each case. Further, the MIC in assay [4] (K. pneumoniae 847204 (KPC)), in [4] (K. pneumoniae 847375 (KPC)) and in [4] (K. pneumoniae 847387 (KPC)) was ≥ 64 µg/mL each time.

Consider `CO/N=C(\C(=O)N[C@@H]1C(=O)N2C(C(=O)O)=C(/C=C\c3scnc3C)CS[C@H]12)c1csc(N)n1` [Cefditoren, cefditoren], for which, in [5], the MIC50 was 0.5 µg/mL (≈ 0.987 µM) and the MIC90 was found to be 2 µg/mL (≈ 3.95 µM).

As to `C=CC1=C(C(=O)O)N2C(=O)[C@@H](NC(=O)/C(=N\OCC(=O)O)c3csc(N)n3)[C@H]2SC1` [Cefixime, cefixime], in assay [5], the MIC50 is 0.5 µg/mL (≈ 1.1 µM) and the MIC90 came out at 2 µg/mL (≈ 4.41 µM).

Broadly, the MBC is the smallest concentration meeting the test's criterion for killing. In the case of `C[C@H]1COc2c(N3CCN(C)CC3)c(F)cc3c(=O)c(C(=O)O)cn1c23` [Levofloxacin, levofloxacin], the MIC came to 32 µg/mL (≈ 88.6 µM) in assay [6], 64 µg/mL (≈ 177 µM) in assay [7], 0.12 µg/mL (≈ 0.332 µM) in assay [8] and 32 µg/mL (≈ 88.6 µM) in the assay on E. coli ESBL4 (CTX-M-15) [13]. The MBC in [9] was > 32 µg/mL; in [10] (Enterobacter cloacae, lowest concentration with ≥3-log10 CFU/ml reduction at 24 h, read-out: MBC) it was 0.12 µg/mL (≈ 0.332 µM); in assay [11] it was ≥ 64 µg/mL; in the assay on E. coli ESBL4 (CTX-M-15) [12] it was 32 µg/mL (≈ 88.6 µM). The “outcome of 24-h time-kill assay” value in assay [10] (Fig. 3b) is “bactericidal activity”.

As usually defined, the IC50 is the concentration needed to halve the response being measured. In the case of `C[C@]1(Cn2ccnn2)[C@H](C(=O)O)N2C(=O)C[C@H]2S1(=O)=O` [Tazobactam, tazobactam], the IC50 at CMY-2 was 0.41 µM; against KPC-2, 1.7 µM; against OXA-48, 3.5 µM.
